Consider nine compounds from PMC5090206, “Fluselenamyl: A Novel Benzoselenazole Derivative for PET Detection of Amyloid Plaques (Aβ) in Alzheimer’s Disease” (Scientific Reports, 2016).

Usually pKi stands for the negative decadic logarithm of the Ki, by convention in mol/L. A low value points to a high Ki. What is called log P is the decadic logarithm of the partition coefficient of the neutral form, usually between octanol and water.

In data set [1] the test system is AD homogenates. The data set can be described thus: Competition of unlabeled ligands against [18F]-9 binding on AD homogenates. The arrangement: species or system human. The settings on record: for displacement of [18F]-9 specific binding: AD homogenates, unlabeled competitor. Here is the method:
Literature precedents indicate the presence of at least three different binding sites, characterized as BS1, BS2 and BS3 on the Aβ fibrils in vitro[24] and extracts from AD homogenates. […] Further, to evaluate ability of [^18F]-9 for labeling Aβ in autopsy confirmed human brain sections, autoradiography and immunohistochemical correlations were also performed.
For orientation: Displacement assays read how much labelled ligand stays bound in the presence of the test substance.

The target of data set [2] is AD homogenates. The settings on record: read-out: binding affinity with AD homogenates; cited from earlier work.
For data set [3] the following is noted: comparison values, no reference given; cited from earlier work.
The conditions of data set [4]: normal mice, cited from earlier work.
A further data set concerns the target Aβ plaques (Homo sapiens, UniProt P05067). Nature of the data set: Histological staining of human AD brain tissue sections. The settings on record: AD frontal lobe sections. Here is the method:
To further assess ability of the 5 to label Aβ plaques in human brain, staining experiments were also performed with postmortem tissues from clinically-characterized AD patients[35][36] As a positive control, a highly specific anti-Aβ antibody (10D5, Eli Lilly, Indianapolis, IN) was used to ascertain the presence of Aβ plaques (Fig. 4A), using well-established procedures for assessment of Aβ plaques in postmortem brain[37]. […] Noticeably, 5 also indicated proficient and distinct labeling of plaque and leptomeningeal vessels (cerebral amyloid angiopathy; CAA) (Fig. 4B). […] This high specificity of 5 for Aβ could be attributed to presence of a benzoselenazole ring within Fluselenamyl. Overall, the ability and sensitivity of 5 to detect diffuse plaques and specificity for AD could represent an important advancement to enable PET imaging of mildly demented individuals, prior to onset of symptoms.
Scientific Reports Version of August 4, 2016
µm) were cut in the coronal plane on a freezing sliding microtome and stored at -20°C. 7,8 Tissue was stained as free-floating sections. Prior to staining, tissue sections were permeabilized with PBS-Tritron-X-100 (0.25%) for 30 minutes, and then blocked with 1% non-fat dry milk in PBS-Ttiton-X-100 for 60 minutes.
Hippocampus tissue sections of APP+/-/PS1+/- and age-matched control BL/6 (WT, SI Figure 3) were incubated with fluorescent molecule 5 (100 nM dissolved in 1% ethanol in PBS) for 60 minutes, and washed 3-times with PBS-Triton-X-100.9 Thereafter, tissue sections were incubated with mouse-anti-Aβ (mHJ3.4) 7 that was directly conjugated to Alexa 568 for 90 minutes and washed 3-times with PBS-Triton-X-100.
Tissue sections were mounted onto SuperFrost Plus slides, dried overnight at room temperature, and then sealed with Fluoromount G (Southern Biotech, Birmingham, AL). […]
other neurodegenerative diseases (SI, Figure 4A & 4B). Sections were visualized, processed, and analyzed using a Pascal confocal microscope. […]

pKd, pKi: −log10 of the molar value. Like-named read-outs stand apart in the source and are kept apart here.

Chain of Aβ plaques (P05067 672-711 limits assumed): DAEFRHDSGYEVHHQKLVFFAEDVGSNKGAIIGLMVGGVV

On to `O=C(O)c1cc(/N=N/c2ccc(-c3ccc(/N=N/c4ccc(O)c(C(=O)O)c4)cc3)cc2)ccc1O` [Chrysamine G], for which the “displacement of [18F]-9 specific binding” value in the data set on AD homogenates [1] is listed as “no displacement”.
As for `CN(C)c1ccc(-c2cn3cc(I)ccc3n2)cc1` [IMPY], in the data set on AD homogenates [1], the “displacement of [18F]-9 specific binding” value is on record as “significant displacement”. For the same compound, the pKi at AD homogenates [1] (competition against [18F]-9 on AD homogenates) was 8.20.
As to `[11CH3]Nc1ccc(-c2nc3ccc(O)cc3s2)cc1` [PiB], the “displacement of [18F]-9 specific binding” value with AD homogenates [1] is reported as “significant displacement”.
Take `CNc1ccc(/C=C/c2ccc(OCCOCCOCCF)nc2)cc1` [[^18F]-AV-45]: the pKd at AD homogenates [2] is 8.43.
In the case of `CNc1ccc(/C=C/c2ccc(OCCOCCOCC[18F])nc2)cc1` [[^18F]-AV-45], the “log P” value in data set [3] is listed as 2.4. Also, the “%ID/g (brain)” value in data set [4] (2 min) was 7.33 ± 1.54 %ID/g; in data set [4] (2 h) it was 1.80 ± 0.07 %ID/g. The “brain uptake ratio 2 min/2 h” value in data set [4] is 4.07.
Regarding `CNc1ccc(/C=C/c2ccc(OCCOCCOCCF)cc2)cc1` [[^18F]-Florbetaben], the “log P” value in data set [3] is 3.22. For the same compound, the “%ID/g (brain)” value in data set [4] (2 min) is on record as 4.77 %ID/g; in data set [4] (4 h) it was 0.95 %ID/g. In addition, the “brain uptake ratio 2 min/4 h” value in data set [4] is reported as 5.02. In addition, on AD homogenates [2], the pKd was 7.80.
Consider `CNc1ccc(-c2nc3ccc(O)cc3s2)cc1F` [[^18F]-Flutemetamol], for which the pKd on AD homogenates [2] was 8.17.
With `Nc1ccc(C=Cc2ccc(OCCOCCOCC[18F])nc2)cc1` [desmethylated], the “brain uptake of metabolites of [18F]-AV-45” value in data set [4] (at 2 min) was 4.5 % ID/g.
As to thioflavin S [reference compound], the “staining of diffuse plaques” value at Aβ plaques is on record as “only weak staining of diffuse plaques”.
